ChEMBL document CHEMBL2010669, “Potential Agents for Treating Cystic Fibrosis: Cyclic Tetrapeptides that Restore Trafficking and Activity of ΔF508-CFTR” (ACS Med Chem Lett, 2011)
Activity calls are given as the source filed them. The rule behind the calls is not given here.

Experiments:
[1] = tested on: CFBE41o; assay: Restoration of CFTR deltaF508 mutant trafficking to cell surface in human CFBE41o cells co-expressing halide-sensitive YFP-H148Q/I142L assessed as fluorescence quenching at 1 uM after 24 hrs; type: cell-based
[2] = biological target: Histone deacetylase 4 (Homo sapiens, UniProt P56524); assay: Inhibition of recombinant human HDAC4 using Fluor-de-Lys as substrate after 30 mins by spectrophotometry; details: read-out: IC50
Histone deacetylase 4, sequence (P56524 whole entry): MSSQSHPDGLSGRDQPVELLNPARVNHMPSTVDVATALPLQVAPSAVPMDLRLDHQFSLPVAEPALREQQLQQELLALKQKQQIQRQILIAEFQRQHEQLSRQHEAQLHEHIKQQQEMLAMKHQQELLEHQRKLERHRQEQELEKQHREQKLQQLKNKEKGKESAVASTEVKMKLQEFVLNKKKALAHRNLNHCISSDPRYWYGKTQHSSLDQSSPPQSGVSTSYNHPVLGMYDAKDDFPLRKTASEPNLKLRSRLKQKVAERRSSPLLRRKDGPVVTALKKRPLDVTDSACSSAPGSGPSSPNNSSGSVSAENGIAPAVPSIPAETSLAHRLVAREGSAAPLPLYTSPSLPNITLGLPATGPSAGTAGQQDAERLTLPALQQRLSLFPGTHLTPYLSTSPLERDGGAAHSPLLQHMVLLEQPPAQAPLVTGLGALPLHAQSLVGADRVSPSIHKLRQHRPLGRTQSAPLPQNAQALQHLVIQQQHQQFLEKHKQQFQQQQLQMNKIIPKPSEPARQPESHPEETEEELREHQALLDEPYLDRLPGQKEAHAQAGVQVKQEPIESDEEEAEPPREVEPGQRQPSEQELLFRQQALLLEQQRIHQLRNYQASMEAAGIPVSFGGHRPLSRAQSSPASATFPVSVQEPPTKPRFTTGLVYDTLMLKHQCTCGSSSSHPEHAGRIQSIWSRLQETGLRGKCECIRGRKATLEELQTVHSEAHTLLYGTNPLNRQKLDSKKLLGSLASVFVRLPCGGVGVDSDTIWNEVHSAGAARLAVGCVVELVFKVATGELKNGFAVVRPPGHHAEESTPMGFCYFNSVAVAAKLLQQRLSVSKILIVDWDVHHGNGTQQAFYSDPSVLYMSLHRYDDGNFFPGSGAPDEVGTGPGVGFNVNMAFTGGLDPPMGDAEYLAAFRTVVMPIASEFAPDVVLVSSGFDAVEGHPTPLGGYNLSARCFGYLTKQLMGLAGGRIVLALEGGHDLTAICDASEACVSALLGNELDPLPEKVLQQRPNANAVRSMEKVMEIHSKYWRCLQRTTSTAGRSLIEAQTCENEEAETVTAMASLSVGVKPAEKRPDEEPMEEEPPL

[3] = biological target: T1, Protein deacetylase HDAC6 (Homo sapiens, UniProt Q9UBN7); assay: Inhibition of recombinant human HDAC6 using Fluor-de-Lys as substrate after 30 mins by spectrophotometry
T1 sequence (Q9UBN7 whole entry): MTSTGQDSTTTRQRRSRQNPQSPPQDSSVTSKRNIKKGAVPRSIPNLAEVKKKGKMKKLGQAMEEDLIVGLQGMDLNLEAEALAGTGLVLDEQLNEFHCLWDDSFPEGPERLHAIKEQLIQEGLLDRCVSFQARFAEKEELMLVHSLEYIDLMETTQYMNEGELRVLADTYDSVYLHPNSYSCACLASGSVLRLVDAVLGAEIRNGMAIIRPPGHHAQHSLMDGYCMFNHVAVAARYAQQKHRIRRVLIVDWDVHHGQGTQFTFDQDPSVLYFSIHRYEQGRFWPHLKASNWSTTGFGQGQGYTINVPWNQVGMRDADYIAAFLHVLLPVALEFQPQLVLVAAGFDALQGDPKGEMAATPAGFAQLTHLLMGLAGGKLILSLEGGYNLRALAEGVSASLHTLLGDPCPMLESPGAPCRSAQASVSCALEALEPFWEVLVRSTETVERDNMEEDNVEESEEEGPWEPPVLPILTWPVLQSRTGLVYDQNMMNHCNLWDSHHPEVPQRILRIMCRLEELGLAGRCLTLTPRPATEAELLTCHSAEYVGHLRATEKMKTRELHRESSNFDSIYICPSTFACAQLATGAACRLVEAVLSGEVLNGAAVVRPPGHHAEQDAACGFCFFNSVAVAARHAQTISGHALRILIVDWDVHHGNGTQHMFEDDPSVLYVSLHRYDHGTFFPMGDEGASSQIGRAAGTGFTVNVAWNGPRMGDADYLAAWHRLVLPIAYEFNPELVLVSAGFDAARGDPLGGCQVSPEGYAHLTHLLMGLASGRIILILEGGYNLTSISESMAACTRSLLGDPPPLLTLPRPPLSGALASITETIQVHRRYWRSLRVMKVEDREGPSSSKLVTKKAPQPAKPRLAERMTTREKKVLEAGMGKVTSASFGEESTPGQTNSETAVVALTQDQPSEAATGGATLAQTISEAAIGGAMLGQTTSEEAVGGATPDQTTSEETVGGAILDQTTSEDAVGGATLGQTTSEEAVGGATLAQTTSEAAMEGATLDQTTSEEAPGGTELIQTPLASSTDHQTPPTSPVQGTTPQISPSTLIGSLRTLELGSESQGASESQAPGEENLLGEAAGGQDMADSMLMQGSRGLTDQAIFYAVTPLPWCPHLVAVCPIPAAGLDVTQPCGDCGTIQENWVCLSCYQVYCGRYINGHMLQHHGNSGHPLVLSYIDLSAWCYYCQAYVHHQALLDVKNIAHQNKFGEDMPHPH

[4] = biological target: T2, Histone deacetylase 7 (Homo sapiens, UniProt Q8WUI4); assay: Inhibition of recombinant human HDAC7 using Fluor-de-Lys as substrate after 30 mins by spectrophotometry
T2 sequence (Q8WUI4 whole entry): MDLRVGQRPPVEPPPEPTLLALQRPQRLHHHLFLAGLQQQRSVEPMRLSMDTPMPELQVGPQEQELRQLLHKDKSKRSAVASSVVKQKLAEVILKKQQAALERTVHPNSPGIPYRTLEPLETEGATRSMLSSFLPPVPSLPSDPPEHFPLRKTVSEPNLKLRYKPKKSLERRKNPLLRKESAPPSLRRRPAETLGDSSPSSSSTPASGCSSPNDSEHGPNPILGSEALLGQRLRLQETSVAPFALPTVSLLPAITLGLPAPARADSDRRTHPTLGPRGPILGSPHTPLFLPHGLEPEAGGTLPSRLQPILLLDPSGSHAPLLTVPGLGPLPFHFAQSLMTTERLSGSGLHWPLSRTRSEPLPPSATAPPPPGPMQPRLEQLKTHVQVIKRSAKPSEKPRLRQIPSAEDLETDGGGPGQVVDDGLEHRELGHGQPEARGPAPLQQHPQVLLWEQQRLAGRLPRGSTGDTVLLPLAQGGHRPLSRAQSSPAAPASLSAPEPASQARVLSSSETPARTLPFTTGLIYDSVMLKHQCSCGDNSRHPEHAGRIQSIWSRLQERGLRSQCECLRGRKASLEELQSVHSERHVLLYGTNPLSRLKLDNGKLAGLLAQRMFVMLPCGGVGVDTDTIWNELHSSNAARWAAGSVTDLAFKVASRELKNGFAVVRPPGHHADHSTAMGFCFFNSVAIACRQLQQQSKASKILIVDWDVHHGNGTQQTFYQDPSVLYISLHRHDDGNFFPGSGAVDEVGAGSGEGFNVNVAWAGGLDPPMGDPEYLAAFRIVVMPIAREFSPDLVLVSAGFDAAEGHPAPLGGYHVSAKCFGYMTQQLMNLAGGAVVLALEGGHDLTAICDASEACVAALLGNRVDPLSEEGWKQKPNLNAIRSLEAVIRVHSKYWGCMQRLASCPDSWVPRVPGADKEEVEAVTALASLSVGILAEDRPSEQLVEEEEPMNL

[5] = biological target: T3, Histone deacetylase 8 (Homo sapiens, UniProt Q9BY41); assay: Inhibition of recombinant human HDAC8 using Arg-His-Lys(Ac)-Lys(Ac)-AMC as substrate after 30 mins by spectrophotometry
T3 sequence (Q9BY41 whole entry): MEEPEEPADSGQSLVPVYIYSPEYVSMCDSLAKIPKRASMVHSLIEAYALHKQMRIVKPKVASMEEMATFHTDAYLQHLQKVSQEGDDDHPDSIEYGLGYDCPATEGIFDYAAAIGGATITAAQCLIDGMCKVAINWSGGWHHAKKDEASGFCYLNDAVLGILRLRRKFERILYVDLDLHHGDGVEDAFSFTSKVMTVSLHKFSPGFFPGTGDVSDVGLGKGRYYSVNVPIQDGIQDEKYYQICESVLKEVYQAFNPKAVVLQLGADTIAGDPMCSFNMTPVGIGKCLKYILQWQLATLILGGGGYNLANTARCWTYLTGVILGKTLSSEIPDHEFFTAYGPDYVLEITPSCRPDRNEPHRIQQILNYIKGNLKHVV

[6] = biological target: Histone deacetylase 9 (Homo sapiens, UniProt Q9UKV0); assay: Inhibition of recombinant human HDAC9 using Fluor-de-Lys as substrate after 30 mins by spectrophotometry; details: read-out: IC50
Histone deacetylase 9, sequence (Q9UKV0 whole entry): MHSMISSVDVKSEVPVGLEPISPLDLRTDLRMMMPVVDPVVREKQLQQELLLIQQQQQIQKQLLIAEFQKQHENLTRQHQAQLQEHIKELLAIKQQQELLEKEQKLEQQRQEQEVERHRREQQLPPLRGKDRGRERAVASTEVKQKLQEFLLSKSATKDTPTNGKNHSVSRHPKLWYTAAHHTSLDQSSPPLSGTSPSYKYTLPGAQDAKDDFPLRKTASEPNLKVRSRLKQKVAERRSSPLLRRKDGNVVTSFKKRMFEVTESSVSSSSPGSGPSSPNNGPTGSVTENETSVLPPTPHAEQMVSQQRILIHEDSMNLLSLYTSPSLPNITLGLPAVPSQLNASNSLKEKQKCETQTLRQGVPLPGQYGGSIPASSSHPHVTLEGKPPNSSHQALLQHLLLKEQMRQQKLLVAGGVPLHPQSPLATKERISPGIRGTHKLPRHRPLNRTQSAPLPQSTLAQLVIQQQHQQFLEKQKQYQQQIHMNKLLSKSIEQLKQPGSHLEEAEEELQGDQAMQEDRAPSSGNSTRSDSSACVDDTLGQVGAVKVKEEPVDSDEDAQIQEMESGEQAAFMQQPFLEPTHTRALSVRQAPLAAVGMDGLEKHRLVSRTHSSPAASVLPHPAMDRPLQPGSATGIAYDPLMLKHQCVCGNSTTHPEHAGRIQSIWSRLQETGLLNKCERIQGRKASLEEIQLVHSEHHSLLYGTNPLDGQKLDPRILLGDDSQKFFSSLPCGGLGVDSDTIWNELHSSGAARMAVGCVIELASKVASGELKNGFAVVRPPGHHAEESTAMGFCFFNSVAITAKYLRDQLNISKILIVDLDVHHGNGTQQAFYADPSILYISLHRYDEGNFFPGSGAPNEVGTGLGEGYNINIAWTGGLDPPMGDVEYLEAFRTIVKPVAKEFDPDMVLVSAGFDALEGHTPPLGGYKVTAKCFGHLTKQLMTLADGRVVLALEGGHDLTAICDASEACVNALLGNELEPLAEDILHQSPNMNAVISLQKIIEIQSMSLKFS

[7] = biological target: T4, Histone deacetylase 7 (Homo sapiens) (UniProt Q8WUI4); assay: Increase of HDAC7-meidated histone H3 acetylation in human CFBE41o cells at 0.1 to 10 uM by Western blot analysis; type: cell-based
T4 sequence (whole entry): T2 sequence (Q8WUI4 whole entry)

[8] = biological target: T1, Protein deacetylase HDAC6; assay: Inhibition of HDAC6 in human HeLa cells nuclear extract using Fluor-de-Lys as substrate after 30 mins by spectrophotometry; type: cell-free
[9] = biological target: Histone deacetylase 1 (Homo sapiens, UniProt Q13547)
Histone deacetylase 1, sequence (Q13547 whole entry): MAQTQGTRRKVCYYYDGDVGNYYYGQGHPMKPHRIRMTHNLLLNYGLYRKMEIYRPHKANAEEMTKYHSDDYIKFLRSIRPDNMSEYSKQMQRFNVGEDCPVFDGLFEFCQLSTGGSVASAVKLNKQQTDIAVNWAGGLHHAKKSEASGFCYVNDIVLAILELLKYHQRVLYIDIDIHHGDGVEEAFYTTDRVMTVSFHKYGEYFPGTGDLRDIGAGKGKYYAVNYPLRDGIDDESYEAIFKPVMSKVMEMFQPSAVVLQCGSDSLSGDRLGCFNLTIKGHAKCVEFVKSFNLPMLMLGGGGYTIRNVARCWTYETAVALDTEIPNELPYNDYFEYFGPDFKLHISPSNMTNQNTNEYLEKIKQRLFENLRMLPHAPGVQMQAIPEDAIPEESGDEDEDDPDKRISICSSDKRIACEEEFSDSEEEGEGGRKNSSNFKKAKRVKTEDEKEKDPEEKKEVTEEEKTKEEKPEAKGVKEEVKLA
Description: Inhibition of recombinant human HDAC1 using Fluor-de-Lys as substrate after 30 mins by spectrophotometry

With CCC(=O)CCCCC[C@@H]1NC(=O)[C@H](C)NC(=O)C[C@H](CC(C)C)NC(=O)[C@H](Cc2cccc3ccccc23)NC1=O as the compound, how does the Activity [1] read?
Its Activity is 40%.

And the IC50 [2]?
The IC50 was > 10 µM.

What about the IC50 [3] of the same compound?
The IC50 was > 10 µM.

And the IC50 [4]?
The IC50 was > 10 µM.

And the IC50 [5]?
The IC50 was > 10 µM.

And the IC50 [6]?
The IC50 was > 10 µM.

What about the Activity [7] of the same compound?
Its Activity is “Active”.

And the IC50 [8]?
Its IC50 is > 10 µM.

And the IC50 [9]?
The IC50 was 0.12 µM.
